Values quoted from earlier work as cited in PubChem BioAssay AID1259410 (Chemical Carcinogenesis Research Information System (CCRIS), 2018).

Test system: rodent tumor promotion studies, tumor incidence
Assay: CCRIS tumor promotion studies

For `Clc1cccc(-c2ccc(Cl)c(Cl)c2Cl)c1Cl`, the outcome (Carcinogen: 4-(METHYLNITROSAMINO)-1-(3-PYRIDYL)-1-BUTANONE, 64091-91-4, Doses [Carcinogen]: 50 MG/KG ON D 4 OF LIFE, Doses [Promoter]: 500 MG/KG ONCE ON D 56 OF LIFE (STUDY DURATION: 52 WK), Route [Carcinogen]: INTRAPERITONEAL, Route [Promoter]: INTRAGASTRIC, Species: MOUSE, Strain/Sex: SWISS/FEMALE) is listed as “lung: tumor”, the outcome (Carcinogen: 4-(METHYLNITROSAMINO)-1-(3-PYRIDYL)-1-BUTANONE, 64091-91-4, Doses [Carcinogen]: 100 MG/KG (0.5 MMOL) IN 0.9% STERILE SALINE ON DAYS 15, 17, AND 19 OF GESTATION, Doses [Promoter]: 0, 500 MG/KG IN OLIVE OIL ON POSTNATAL DAY 56 (STUDY DURATION: 72 WK), Route [Carcinogen]: TRANSPLACENTAL, Route [Promoter]: GAVAGE, Species: MOUSE, Strain/Sex: SWISS/MALE) is listed as “liver: hepatocellular adenoma or carcinoma” and the outcome (Carcinogen: 4-(METHYLNITROSAMINO)-1-(3-PYRIDYL)-1-BUTANONE, 64091-91-4, Doses [Carcinogen]: 100 MG/KG IN 0.9% SALINE ON GESTATION DAYS 15, 17 AND 19, Doses [Promoter]: 500 MG/KG ONCE ON D 56 OF LIFE TO OFFSPRING OF CARCINOGEN-TREATED MOTHERS (STUDY DURATION: 52 WK), Route [Carcinogen]: INTRAPERITONEAL, Route [Promoter]: INTRAGASTRIC, Species: MOUSE, Strain/Sex: SWISS/MALE) is listed as “lung: tumor”. For the same compound, the outcome (Carcinogen: DIETHYLNITROSAMINE, 55-18-5, Doses [Carcinogen]: 90 MG/KG BW ONCE, Doses [Promoter]: 0, 100 PPM IN DIET FOR 20 WK BEGINNING 3 WK POST CARCINOGEN DOSE (STUDY DURATION: 47 WK), Route [Carcinogen]: INTRAPERITONEAL, Route [Promoter]: ORAL, Species: MOUSE, Strain/Sex: C57BL/MALE) was “liver: tumor”, the outcome (Carcinogen: DIETHYLNITROSAMINE, 55-18-5, Doses [Carcinogen]: 1100 PPM IN DIET FOR 1 YR, Doses [Promoter]: 0, 100 PPM IN DIET FOR 1 YR (STUDY DURATION: 1 YR), Route [Carcinogen]: ORAL, Route [Promoter]: ORAL, Species: FISH, Strain/Sex: RAINBOW TROUT/MALE, FEMALE) was “liver: hepatocellular carcinoma” and the outcome (Carcinogen: DIISOPROPANOLNITROSAMINE [53609-64-6], Doses [Carcinogen]: SINGLE DOSE OF 2.5 G/KG BW, Doses [Promoter]: 100 PPM IN DIET BEGINNING 1 WK AFTER DIPN TREATMENT FOR 19 WKS (STUDY DURATION: 20 WKS), Route [Carcinogen]: SUBCUTANEOUS INJECTION, Route [Promoter]: DIET, Species: RAT, Strain/Sex: SPRAGUE-DAWLEY/MALE) was “thyroid: carcinoma”. The outcome (Carcinogen: N-NITROSODIETHYLAMINE, 55-18-5, Doses [Carcinogen]: 90 MG/KG BW ONCE, Doses [Promoter]: 0, 175, 350 PPM IN DIET FOR 53 WK BEGINNING 2 WK POST CARCINOGEN DOSE (STUDY DURATION: 55 WK), Doses [Promoter]: 0, 175, 350 PPM IN DIET FOR 53 WK BEGINNING 2 WK POST CARCINOGEN DOSE (STUDY DURATION: 55 WK), Route [Carcinogen]: INTRAPERITONEAL, Route [Promoter]: ORAL, Species: MOUSE, Strain/Sex: D2B6F1/MALE) was “liver: hepatocellular adenoma, hepatocellular carcinoma”, the outcome (Carcinogen: N-NITROSODIMETHYLAMINE, 62-75-9, Doses [Carcinogen]: 5 MG/KG IN SALINE ONCE AT 4 DAYS OF AGE, Doses [Promoter]: 0, 250 MG/KG IN OLIVE OIL ONCE AT 8 DAYS OF AGE (STUDY DURATION: 28 WK), Route [Carcinogen]: INTRAPERITONEAL, Route [Promoter]: GAVAGE, Species: MOUSE, Strain/Sex: SWISS/MALE) was “lung: tumor” and the outcome (Carcinogen: N-NITROSODIMETHYLAMINE, 62-75-9, Doses [Carcinogen]: 5 MG/KG IN SALINE ONCE AT 4 DAYS OF AGE, Doses [Promoter]: 0, 250 MG/KG IN OLIVE OIL ONCE AT 8 DAYS OF AGE (STUDY DURATION: 52 WK), Route [Carcinogen]: INTRAPERITONEAL, Route [Promoter]: GAVAGE, Species: MOUSE, Strain/Sex: SWISS/MALE) was “lung: tumor; liver: tumor”. The outcome (Carcinogen: N-NITROSODIMETHYLAMINE, 62-75-9, Doses [Carcinogen]: 5 MG/KG ON D 4 OF LIFE, Doses [Promoter]: 500 MG/KG ONCE ON D 56 OF LIFE (STUDY DURATION: 52 WK), Route [Carcinogen]: INTRAPERITONEAL, Route [Promoter]: INTRAGASTRIC, Species: MOUSE, Strain/Sex: SWISS/MALE) was “lung: tumor; liver: tumor” and the outcome (Carcinogen: N-NITROSODIMETHYLAMINE, 62-75-9, Doses [Carcinogen]: 10 MG/KG IN SALINE ON GESTATION D 19, Doses [Promoter]: 500 MG/KG ONCE ON D 56 OF LIFE TO OFFSPRING OF CARCINOGEN-TREATED MOTHERS (STUDY DURATION: 52 WK), Route [Carcinogen]: INTRAPERITONEAL, Route [Promoter]: INTRAGASTRIC, Species: MOUSE, Strain/Sex: SWISS/MALE) was “lung: tumor”.

For `C[C@H](CCC(=O)O)[C@H]1CC[C@H]2[C@@H]3CC[C@@H]4C[C@H](O)CC[C@]4(C)[C@H]3C[C@H](O)[C@]12C`, the outcome (Carcinogen: AZOXYMETHANE, 25843-45-2, Doses [Carcinogen]: 7.4 MG/KG BW/WK FOR 5 WK, Doses [Promoter]: 0, 0.3% OF CHOW PELLETS FOR 45 WK BEGINNING FROM START OF ADMINISTRATION OF CARCINOGEN (STUDY DURATION: 45 WK), Route [Carcinogen]: SUBCUTANEOUS, Route [Promoter]: ORAL, Species: RAT, Strain/Sex: WISTAR/MALE) is given as “colon: tumor”, the outcome (Carcinogen: DIETHYLNITROSAMINE, 55-18-5, 2-(ACETYLAMINO)FLUORENE, 6292-55-3, Carcinogen: DIETHYLNITROSAMINE, 55-18-5, 2-(ACETYLAMINO)FLUORENE, 6292-55-3, Doses [Carcinogen]: 200 MG/KG DEN FOLLOWED 2 WK LATER BY 0.03% 2AAF IN DIET FOR 2 WK PLUS 2 ML/KG CCL4 IN THE MIDDLE OF TREATMENT, Doses [Promoter]: 0.5% IN DIET BEGINNING 1 WK POST CARCINOGEN TREATMENT AND CONTINUING FOR DURATION OF TREATMENT (STUDY DURATION: 35 WK), Route [Carcinogen]: INTRAPERITONEAL, ORAL, Route [Promoter]: ORAL, Species: RAT, Strain/Sex: WISTAR/MALE) is given as “liver: hepatocellular carcinoma or cholangiocarcinoma” and the outcome (Carcinogen: DIETHYLNITROSAMINE, 55-18-5, 2-ACETYLAMINO-FLUORENE, 53-96-3, CARBON TETRACHLORIDE, 56-23-5, Carcinogen: DIETHYLNITROSAMINE, 55-18-5, 2-ACETYLAMINO-FLUORENE, 53-96-3, CARBON TETRACHLORIDE, 56-23-5, Doses [Carcinogen]: 200 NMOL DEN ONCE FOLLOWED 2 WK LATER BY 0.03% 2AAF IN DIET PLUS 2 ML/MG CC14 IN THE MIDDLE OF 2AAF TREATMENT OF 3 WK, Doses [Promoter]: 0, 0.5% IN DIET BEGINNING POST CARCINOGEN TREATMENT AND CONTINUING FOR 30 WK (STUDY DURATION: 35 WK), Route [Carcinogen]: INTRAPERITONEAL, ORAL, Route [Carcinogen]: INTRAPERITONEAL, ORAL, Route [Promoter]: ORAL, Species: RAT, Strain/Sex: WISTAR/MALE) is given as “liver: tumor”. For the same compound, the outcome (Carcinogen: N-METHYL-N-AMYLNITROSAMINE, 13256-07-0, Doses [Carcinogen]: 0.003% IN DRINKING WATER FOR 8 WK FOLLOWED BY TAP WATER FOR 20 WK, Doses [Promoter]: 0, 0.2% IN DIET BEGINNING POST CARCINOGEN TREATMENT AND CONTINUING FOR 20 WK (STUDY DURATION: 28 WK), Route [Carcinogen]: ORAL, Route [Promoter]: ORAL, Species: RAT, Strain/Sex: WISTAR/MALE) was “esophagus: papilloma”, the outcome (Carcinogen: N-METHYL-N-AMYLNITROSAMINE, 13256-07-0, Doses [Carcinogen]: 0.003% IN DRINKING WATER FOR 8 WK FOLLOWED BY TAP WATER FOR 20 WK, Doses [Promoter]: 0, 0.2% IN DIET FOR 8 WK SIMULTANEOUSLY WITH CARCINOGEN TREATMENT (STUDY DURATION: 28 WK), Route [Carcinogen]: ORAL, Route [Promoter]: ORAL, Species: RAT, Strain/Sex: WISTAR/MALE) was “esophagus: papilloma” and the outcome (Carcinogen: N-METHYL-N-AMYLNITROSAMINE, 13256-07-0, Doses [Carcinogen]: 0.003% IN DRINKING WATER FOR 8 WK FOLLOWED BY TAP WATER FOR 20 WK, Doses [Promoter]: 0, 0.2% IN DIET FOR DURATION OF STUDY (STUDY DURATION: 28 WK), Route [Carcinogen]: ORAL, Route [Promoter]: ORAL, Species: RAT, Strain/Sex: WISTAR/MALE) was “esophagus: carcinoma, papilloma”. The outcome (Doses [Carcinogen]: IR, Route [Carcinogen]: RECTAL, Route [Promoter]: RECTAL, Species: RAT, Strain/Sex: FEMALE) was “colon”.

For `Cc1cccc(C)c1NC1=NCCCS1`, the outcome (Carcinogen: N-BIS(2-HYDROXYPROPYL)NITROSAMINE, 53609-64-6, Doses [Carcinogen]: 2,400 MG/KG ONCE, Doses [Promoter]: 0, 1,000 PPM IN DIET FOR 52 WK BEGINNING 1 WK POST CARCINOGEN DOSE (STUDY DURATION: 28 WK), Route [Carcinogen]: SUBCUTANEOUS, Route [Promoter]: ORAL, Species: RAT, Strain/Sex: F344/MALE) is listed as “thyroid gland: follicular cell adenoma or carcinoma”, the outcome (Carcinogen: N-NITROSOBIS(2-HYDROXYPROPYL)AMINE [53609-64-6], Doses [Carcinogen]: 2400 MG/KG IN SALINE ONCE, Doses [Promoter]: 0, 250, 500, 1000 PPM IN DIET FOR 26 WK, BEGINNING 1 WK AFTER CARCINOGEN DOSE (STUDY DURATION: 27 WK), Doses [Promoter]: 0, 250, 500, 1000 PPM IN DIET FOR 26 WK, BEGINNING 1 WK AFTER CARCINOGEN DOSE (STUDY DURATION: 27 WK), Route [Carcinogen]: SUBCUTANEOUS, Route [Promoter]: ORAL, Species: RAT, Strain/Sex: F344/MALE) is listed as “thyroid gland: follicular cell hyperplasia, follicular cell adenoma” and the outcome (Carcinogen: N-NITROSOBIS(2-HYDROXYPROPYL)AMINE, 53609-64-6, Doses [Carcinogen]: 2400 MG/KG IN SALINE ONCE, Doses [Promoter]: 0, 1,000 PPM IN FEED FOR 52 WK BEGINNING 1 WK POST CARCINOGEN TREATMENT (STUDY DURATION: 53 WK), Route [Carcinogen]: SUBCUTANEOUS, Route [Promoter]: ORAL, Species: RAT, Strain/Sex: F344/MALE) is listed as “thyroid: adenoma and carcinoma”.
